Assay results: PubChem BioAssay AID2742 (NMMLSC, 2010)
Where “and” joins values, the source holds several entries; their conditions need not be identical. Equal entries are not always repeated. Calls of active or inactive are those of the source.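 How the source made its calls: active means fitted half-maximal concentration for changing background-corrected GFP signal at or below a set limit; inactive means the rest.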

Assay: TOR pathway reporter MEP2-GFP, concentration series – S. cerevisiae, flow cytometry GFP, MLPCN hits, dose response (AID 2742);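 further: GFP tag reports level of MEP2 protein as a downstream target of TOR signalling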
Conditions: S. cerevisiae MEP2-GFP strain, flow cytometry fluorescence, 3 h; at 33 µM (top of the series)

Compound | GFP fluorescence (kMESF), higher = increase
O=C(/C=C/c1ccccn1)c1ccc(Br)cc1O | 2.38 kMESF (inactive)
CCOc1ccccc1/C=c1\sc2ncnn2c1=O | 4.47 kMESF (inactive)
COc1cc(/C=C2\CC/C(=C\c3cc(OC)c(O)c(OC)c3)C2=O)cc(OC)c1O | 3.25 kMESF (inactive)
CCOC(=O)C(C(=O)OCC)C(C(=O)OCC)N1CCOCC1 (configuration not stated) | 4.83 kMESF (inactive)
O=C(Nc1ccccc1)c1nnsc1S(=O)(=O)c1ccc(Cl)cc1 | 6.03 kMESF (inactive)
O=C(OCC(=O)N1CCN(C(=O)c2ccco2)CC1)c1cc(-c2ccccc2)nc2ccccc12 | 3.96 kMESF (inactive) and 2.66 kMESF (inactive)
COC(=O)CCS(=O)(=O)c1nc(-c2ccccc2)cc(C(F)(F)F)n1 | 6.95 kMESF (inactive)
COc1cc(N=c2ssnc2Cl)cc(OC)c1 | 4.07 kMESF (inactive)
Cc1ccc(/C=C2\C(=O)NC(=S)N(c3ccccc3F)C2=O)s1 | 4.49 kMESF (inactive)
N/C(Cc1ccc(Cl)cc1)=N\OC(=O)c1ccccc1 | 3.99 kMESF (inactive)
O=C(/C=C/c1ccc(Br)cc1)NC(=S)NNC(=O)c1ccco1 | 3.07 kMESF (inactive)
Cc1[nH][nH]c(=O)c1C(c1ccc(-c2ccc(Cl)cc2)o1)c1c(C)[nH][nH]c1=O | 3.72 kMESF (inactive)
O=C1C=C(c2ccccc2)C(=O)N1Nc1ccccc1 | 6.2 kMESF (inactive)
O=C1/C(=C\c2ccc(O)c(O)c2)SC(=S)N1Cc1ccccc1 | -21.1 kMESF (inactive)
Cc1[nH]c2ccccc2c1C(=O)COC(=O)c1ccc([N+](=O)[O-])s1 | 0.4 kMESF (inactive)
CC[C@H](C)/C=C(C)/C=C/C1=CC2=C(Cl)C(=O)[C@@](C)(OC(C)=O)C(=O)C2=CO1 | 0.91 kMESF (inactive)
CN(O)/C=c1/ccc2c(n1)C(=O)C=CC=2 | 3.88 kMESF (inactive)
CC(C)(C)n1nc(-c2ccc(F)cc2)c2c(N)ncnc21 | 4.89 kMESF (inactive)
CC(Oc1ccc2ccccc2c1)C(=O)NNC(=S)NC(=O)c1ccco1 (configuration not stated) | 4.16 kMESF (inactive)
CC(C)CC(=O)NC(=S)Nc1nc(-c2ccccc2)cs1 | 2.07 kMESF (inactive)
O=C1NC(=O)N(Cc2ccco2)C(=O)/C1=C/c1ccc(-c2cccc([N+](=O)[O-])c2)o1 | 4.33 kMESF (inactive)

Compound | GFP fluorescence (kMESF), higher = increase
O=[N+]([O-])c1ccc(Sc2nc3ccccc3o2)c([N+](=O)[O-])c1 | 2.65 kMESF (inactive)
Cc1ccc(N/N=C(\C#N)C(N)=S)c(C)c1 | 4.52 kMESF (inactive)
CC(=O)Oc1cccc(N2C(=O)c3cccc4c([N+](=O)[O-])ccc(c34)C2=O)c1 | 7.84 kMESF (inactive)
CCCCCCCCC/C(=N\O)c1ccccn1 | 3.61 kMESF (inactive)
Cc1ccc(/C=C2\SC(=S)N(Cc3ccccc3)C2=O)o1 | 9.98 kMESF (inactive)
Cc1c(Cc2ccccc2)c(NCCN(C)C)n2c(nc3ccccc32)c1C#N | 4.39 kMESF (inactive)
O=C(OCn1ncc(Br)c(Br)c1=O)c1ccc(F)cc1 | 5.15 kMESF (inactive)
Cc1c(C(=O)Nc2nc(-c3ccccn3)cs2)oc2ccccc12 | 4.49 kMESF (inactive)
O=C(Sc1cccc2cccnc12)c1ccccc1Br | 4.93 kMESF (inactive)
CC(=O)CSc1ncnc2c1cnn2-c1ccccc1 | 2.5 kMESF (inactive)
CS(=O)(=O)c1nc(-c2ccccc2)cc(C(F)(F)F)n1 | 7.24 kMESF (inactive)
CCC(C)/C(C)=N/NC(=O)c1ccc(COc2ccc(Cl)c(C)c2)cc1 (configuration not stated) | 2.48 kMESF (inactive)
Cc1[nH]c(-c2ccccn2)nc(=S)c1Cl | 4.24 kMESF (inactive)
COc1ccc([C@]2(C(C)C)ON(c3ccccc3C(F)(F)F)C2=O)cc1 | 2.67 kMESF (inactive)
O=[N+]([O-])c1cc(S(=O)(=O)C(F)(F)F)ccc1Sc1nc2ccccc2s1 | 4.67 kMESF (inactive)
Cc1ccc2[nH]cc(/C=C/c3cc[n+](C)cc3)c2c1 | 4.2 kMESF (inactive)
CN(c1ccccc1)c1ccc(/C=c2\s/c(=C(/C#N)C(=O)C(C)(C)C)n(Cc3ccco3)c2=O)cc1 | 13.7 kMESF (inactive)
O=C(O)c1ccc(COc2ccccc2C=C2C(=O)c3ccccc3C2=O)cc1 | 1.54 kMESF (inactive)
O=C(NCc1ccc2c(c1)OCO2)c1nc(S(=O)(=O)Cc2ccccc2)ncc1Cl | 2.56 kMESF (inactive)
O=c1c(-c2ccc(Cl)cc2)[n+]([O-])c2ccccc2n1O | 24.9 kMESF (inactive)
Oc1c(I)cc(Cl)c2cccnc12 | 5.67 kMESF (inactive)
